Data published in the supplement of paper PMC10307832.

Experiments:
Assay in all cases: relative viability (nuclei count vs DMSO), 5 days (fraction); higher = more cells survive
[1] = compound: CS(=O)(=O)c1ccc(-c2cnc(N)c(C(=O)Nc3ccccc3)n2)cc1 [VE-821] + Cc1cc(Nc2cc(N3CCN(C)CC3)nc(Sc3ccc(NC(=O)C4CC4)cc3)n2)n[nH]1 [Tozasertib] (partner 0.1 µM)
Procedure, shortened: (§1)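 One day after seeding in 1536-well plates, lung cancer cell lines were dosed by pin tool. Dosing was either single-drug or a fixed anchor-drug dose plus five library-drug doses (not always all listed) in √10 steps. After 5 days, nuclei were stained in one fix-and-stain step and counted on 4× images, and relative viability is the nuclei count of treated wells over that of vehicle wells, given as the median of duplicate plates.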

[2] = compound: CS(=O)(=O)c1ccc(-c2cnc(N)c(C(=O)Nc3ccccc3)n2)cc1 [VE-821] + O=C(c1cc(Cc2n[nH]c(=O)c3ccccc23)ccc1F)N1CCN(C(=O)C2CC2)CC1 [Olaparib] (partner 8 µM)
Procedure, shortened: as §1

[3] = compound: CS(=O)(=O)c1ccc(C(=O)Nc2ccc(Cl)c(-c3ccccn3)c2)c(Cl)c1 [Vismodegib] + C[C@]1(O)C[C@@H](c2nc(-c3ccc4ccc(-c5ccccc5)nc4c3)c3c(N)nccn32)C1 [Linsitinib] (partner 1 µM)
Procedure, shortened: as §1

[4] = compound: CS(=O)(=O)c1ccc(C(=O)Nc2ccc(Cl)c(-c3ccccn3)c2)c(Cl)c1 [Vismodegib] + N=C(N)NC(=N)NCCc1ccccc1 [Phenformin] (partner 250 µM)
Procedure, shortened: as §1

Cell Line	relative viability ([1]; first compound 0.08 µM)	relative viability ([1]; first compound 0.253 µM)	relative viability ([1]; first compound 0.8 µM)	relative viability ([1]; first compound 2.53 µM)	relative viability ([1]; first compound 8 µM)	relative viability ([2]; first compound 0.08 µM)	relative viability ([2]; first compound 0.253 µM)	relative viability ([2]; first compound 0.8 µM)	relative viability ([2]; first compound 2.53 µM)	relative viability ([2]; first compound 8 µM)	relative viability ([3]; first compound 0.08 µM)	relative viability ([3]; first compound 0.253 µM)	relative viability ([3]; first compound 0.8 µM)	relative viability ([3]; first compound 2.53 µM)	relative viability ([3]; first compound 8 µM)	relative viability ([4]; first compound 0.08 µM)	relative viability ([4]; first compound 0.253 µM)	relative viability ([4]; first compound 0.8 µM)	relative viability ([4]; first compound 2.53 µM)	relative viability ([4]; first compound 8 µM)
NCI-H1755	0.667	0.543	0.539	0.532	0.428	0.928	0.859	0.854	0.893	0.719	0.926	0.969	1.02	1	0.999	0.596	0.61	0.611	0.617	0.598
LOU-NH91	0.69	0.666	0.665	0.701	0.54	0.988	0.921	0.924	0.916	0.847	0.926	0.972	0.916	0.951	0.961	0.66	0.68	0.67	0.75	0.681
NCI-H1975	0.862	0.625	–	0.17	0.139	0.883	0.715	0.672	0.57	0.334	0.87	0.919	0.975	0.908	0.977	0.402	0.408	0.398	0.424	0.389
NCI-H727	0.601	0.633	0.505	0.67	0.488	0.725	0.694	0.765	0.682	0.66	0.336	0.319	0.286	0.376	0.239	0.52	0.58	0.592	0.524	0.444
CAL-12T	0.307	0.227	0.189	0.207	0.147	0.869	0.73	0.816	0.691	0.549	0.927	0.765	0.95	0.722	0.679	0.641	0.584	0.578	0.561	0.578
NCI-H441	0.78	0.399	0.666	0.564	0.511	0.6	0.643	0.584	0.469	0.247	0.419	0.562	0.48	0.508	0.653	0.838	0.648	0.831	0.835	0.907
NCI-H1944	0.285	0.253	0.219	0.231	0.193	0.434	0.417	0.356	0.366	0.225	1.15	1.33	1.16	1.19	1.2	0.192	0.207	0.205	0.197	0.216
RERF-LC-KJ	0.539	0.478	0.483	0.349	0.274	0.946	0.819	0.851	0.698	0.49	0.846	0.922	0.796	0.823	0.839	0.422	0.427	0.432	0.437	0.455
NCI-H838	0.284	0.25	0.2	0.212	0.215	0.866	0.856	0.765	0.638	0.365	0.869	0.967	0.992	0.99	1.02	0.53	0.573	0.559	0.67	0.612
